In ChEMBL document CHEMBL1150732, “Anticandidal activity of eupolauridine and onychine, alkaloids from Cleistopholis patens” (1987):
≈ marks a conversion by molar mass, not a printed value. Calls of active or inactive are those of the source. The calls are words filed in the database; no cut-off is given here.

Tested on: Candida albicans
Assay: Antifungal activity against Candida albicans B311 after 24 to 48 hrs by twofold serial dilution method
Assay type: functional

Compound | MIC | Activity
Cc1ccnc2c1-c1ccccc1C2=O | 3.12 µg/mL (≈ 16 µM) | –
Cc1ccnc2c1C(=O)c1ccccc1-2 | – | Active
C[C@@H]1[C@H](O)[C@@H](C)/C=C/C=C/C=C/C=C/C=C/C=C/C=C/[C@H](O[C@@H]2O[C@H](C)[C@@H](O)[C@H](N)[C@@H]2O)C[C@@H]2O[C@](O)(C[C@@H](O)C[C@@H](O)[C@H](O)CC[C@@H](O)C[C@@H](O)CC(=O)O[C@H]1C)C[C@H](O)[C@H]2C(=O)O [AMPHOTERICIN B] | 0.39 µg/mL (≈ 0.422 µM) | –
c1ccc2c(c1)-c1nccc3ccnc-2c13 [EUPOLAURIDINE] | 1.56 µg/mL (≈ 7.64 µM) | –
